Test results as given in US20110111014A1, “METHODS AND COMPOSITIONS FOR TREATMENT OF NEUROLOGICAL DISORDERS” (Parkinson's Institute, priority 2007, published 2011).
Where a name gives a salt, the structure may show the parent alone. Each block holds one compound with its values, some of them ahead of it.

Columns and labels:
α-synuclein [1] = biological target: T1, α-synuclein (Homo sapiens, UniProt P37840); test: Disaggregation Thioflavin T assay; assay type: biochemical; details: polyphenol inhibitors
T1 construct: made in house; host or cells: E. coli BL21(DE3), plasmid pRK172/α-synuclein WT

α-synuclein [2] = biological target: T1, α-synuclein; test: Electron microscopy of fibrils (secondary assay); assay type: biochemical; details: figure legends
α-synuclein [3] = biological target: T1, α-synuclein; test: Aggregation inhibition Thioflavin T assay (primary assay); assay type: biochemical; details: for Thioflavin T signal / fibril formation by Thioflavin T fluorescence: compared with control samples (FIGS. 1-13); for lagtime for fibrillation: NINDS Collection 2 Library
α-synuclein [4] = biological target: T1, α-synuclein; test: Centrifugation to separate soluble and insoluble protein, SDS-PAGE; assay type: biochemical; details: for protein soluble after incubation, SDS PAGE of supernatant vs. total mixture: figure legends
α-synuclein [5] = biological target: T1, α-synuclein; test: SEC HPLC, oligomer formation; assay type: biochemical; details: none with control
α-synuclein [6] = biological target: T1, α-synuclein; test: Atomic force microscopy of fibrils; assay type: biochemical; details: 45 hours post treatment, compared to control
Protocol: Atomic force microscopy (AFM): AFM images were collected with a PicoScan LE system (Molecular Imaging, Phoenix, AZ) equipped with Acoustic AC mode (Tapping mode) for ex-situ experiment. Triangular cantilevers with 160 kHz resonance frequency and 2 N/m spring constant, a V-shaped cantilever NSC16/AIBS (MikroMasch), were used in tapping mode imaging. The imaging was carried out at a scan rate of 1 line/s with 512 data points per line, at a drive current of 10±4 Å. Aliquots of 10 ul of sample were placed on a freshly cleaved mica substrate. After incubation for at least 60 min, the substrate was rinsed with water several times to remove salt and loosely bound protein and dried with high-purity nitrogen. Kinetics of α-synuclein fibrillation can be visualized with the use of this technique, as exemplified in FIG. 46.

[7] = in vivo; cited from earlier work
[8] = cited from earlier work

Compound: O=c1cc(-c2cccc(O)c2O)oc2ccccc12 [2′,3′-dihydroxyflavone]
disaggregation of α-synuclein aggregates (α-synuclein [1]): best disaggregators

Compound: O=c1c(O)c(-c2ccc(O)c(O)c2)oc2c(O)c(O)cc(O)c12 [3,5,7,8,3′,4′-hexahydroxyflavone]
disaggregation of α-synuclein aggregates (α-synuclein [1]): best disaggregators

Compound: O=c1cc(-c2ccc(O)c(O)c2)oc2ccccc12 [3′,4′-dihydroxyflavone]
disaggregation of α-synuclein aggregates (α-synuclein [1]): best disaggregators

Compound: O=c1c(O)c(-c2ccc(O)c(O)c2)oc2ccccc12 [3′,4′-dihydroxyflavonol]
disaggregation of α-synuclein aggregates (α-synuclein [1]): best disaggregators

Compound: O=c1cc(-c2cc(O)c(O)c(O)c2)oc2cc(O)cc(O)c12 [5,7,3′,4′,5′-pentahydroxyflavone]
disaggregation of α-synuclein aggregates (α-synuclein [1]): best disaggregators

Compound: O=c1cc(-c2cccc(O)c2O)oc2ccc(O)cc12 [6,2′,3′-trihydroxyflavone]
disaggregation of α-synuclein aggregates (α-synuclein [1]): best disaggregators

Compound: O=c1cc(-c2cc(O)c(O)c(O)c2)oc2cc(O)ccc12 [7,3′,4′,5′-tetrahydroxyflavone]
disaggregation of α-synuclein aggregates (α-synuclein [1]): best disaggregators

Compound: O=c1c(-c2ccc(O)c(O)c2)coc2cc(O)ccc12 [7,3′,4′-trihydroxyisoflavone]
disaggregation of α-synuclein aggregates (α-synuclein [1]): best disaggregators

Compound: c1ccc(N=Nc2ccccc2)cc1 [azobenzene]
lagtime for fibrillation (α-synuclein [3]): Significant increases in

Compound: N.N.[Cl][Pt][Cl] [cisplatin]
fibril formation by EM (α-synuclein [2]): negligible fibril formation | Thioflavin T signal / fibril formation by Thioflavin T fluorescence (α-synuclein [3]): negligible fibril formation

Compound: NCCc1ccc(O)c(O)c1 [dopamine]
crossing of the blood-brain barrier [7]: does not cross

Compound: O=C(O[C@@H]1Cc2c(O)cc(O)cc2O[C@@H]1c1cc(O)c(O)c(O)c1)c1cc(O)c(O)c(O)c1 [epigallocatechin gallate]
disaggregation of α-synuclein aggregates (α-synuclein [1]): best disaggregators

Compound: N[C@@H](Cc1ccc(O)c(O)c1)C(=O)O [l-dopa, (−)-L-a-amino-b-(3,4-dihydroxybenzene)propanoic acid]
crossing of the blood-brain barrier [7]: does cross | solubility in water [8]: slightly soluble

Results, then the compound that gave them:

fibril formation by EM (α-synuclein [2]): negligible fibril formation | Thioflavin T signal / fibril formation by Thioflavin T fluorescence (α-synuclein [3]): very low | protein soluble after incubation, SDS PAGE of supernatant vs. total mixture (α-synuclein [4]): most protein still soluble | oligomer formation by SEC HPLC (α-synuclein [5]): oligomer formation
Compound: CN1CCc2cccc3c2[C@H]1Cc1ccc(O)c(O)c1-3 [apomorphine, 6αβ-Aporphine-10,11-diol hydrochloride hemihydrate]

protein soluble after incubation, SDS PAGE of supernatant vs. total mixture (α-synuclein [4]): most protein still soluble | fibrils with atomic force microscopy (α-synuclein [6]): very few fibrils
Compound: O=c1cc(-c2ccccc2)oc2cc(O)c(O)c(O)c12 [baicalein]

fibril formation by EM (α-synuclein [2]): negligible fibril formation | Thioflavin T signal / fibril formation by Thioflavin T fluorescence (α-synuclein [3]): negligible fibril formation | protein soluble after incubation, SDS PAGE of supernatant vs. total mixture (α-synuclein [4]): most protein still soluble
Compound: C[C@@](Cc1ccc(O)c(O)c1)(NN)C(=O)O [carbidopa]

lagtime for fibrillation (α-synuclein [3]): Significant increases in
Compound: Cn1nnnc1SCC1=C(C(=O)O)N2C(=O)[C@@H](NC(=O)[C@H](O)c3ccccc3)[C@H]2SC1 [cefamandole sodium]

lagtime for fibrillation (α-synuclein [3]): Significant increases in
Compound: O=C(Cc1cccs1)N[C@@H]1C(=O)N2C(C(=O)[O-])=C(C[n+]3ccccc3)CS[C@H]12 [cephaloridine]

fibril formation by EM (α-synuclein [2]): negligible fibril formation | Thioflavin T signal / fibril formation by Thioflavin T fluorescence (α-synuclein [3]): negligible fibril formation | protein soluble after incubation, SDS PAGE of supernatant vs. total mixture (α-synuclein [4]): most protein still soluble
Compound: CC(CCc1ccc(O)cc1)NCCc1ccc(O)c(O)c1 (stereo not shown) [dobutamine]

lagtime for fibrillation (α-synuclein [3]): Significant increases in
Compound: CCCCOc1ccc(C(=O)CCN2CCCCC2)cc1 [dyclonine hydrochloride]

fibril formation by EM (α-synuclein [2]): negligible fibril formation | Thioflavin T signal / fibril formation by Thioflavin T fluorescence (α-synuclein [3]): negligible fibril formation | protein soluble after incubation, SDS PAGE of supernatant vs. total mixture (α-synuclein [4]): most protein still soluble
Compound: CCCCCCCC/C=C/CCCCCCCCOP(=O)([O-])OCC[N+](C)(C)C [elaidyphosphocholine (antineoplastic), elaidylphosphocholine]

disaggregation of α-synuclein aggregates (α-synuclein [1]): best disaggregators
Compound: O=c1c(O)c(-c2ccc(O)c(O)c2)oc2cc(O)ccc12 [fisetin]

fibril formation by EM (α-synuclein [2]): Few fibrils | Thioflavin T signal / fibril formation by Thioflavin T fluorescence (α-synuclein [3]): very low | protein in the supernatant after centrifugation (α-synuclein [4]; FIG. 1B, control samples <15%): > 90%
Compound: CC(C)NCC(O)c1ccc(O)c(O)c1 (stereo not shown) [isoproterenol]

lagtime for fibrillation (α-synuclein [3]): Significant increases in
Compound: Cc1c(OCC(F)(F)F)ccnc1C[S+]([O-])c1nc2ccccc2[nH]1 (stereo not shown) [lansoprazole]

disaggregation of α-synuclein aggregates (α-synuclein [1]): best disaggregators
Compound: O=c1cc(-c2ccc(O)c(O)c2)oc2cc(O)cc(O)c12 [luteolin]

lagtime for fibrillation (α-synuclein [3]): Significant increases in
Compound: CCCCOc1ccc(OCCCN2CCOCC2)cc1 [pramoxine hydrochloride]

lagtime for fibrillation (α-synuclein [3]): Significant increases in
Compound: O=C1c2ccccc2C(=O)c2c(O)c(O)cc(O)c21 [purpurin]

disaggregation of α-synuclein aggregates (α-synuclein [1]): best disaggregators
Compound: Oc1cccc(O)c1O [pyrogallol]

fibril formation by EM (α-synuclein [2]): negligible fibril formation | Thioflavin T signal / fibril formation by Thioflavin T fluorescence (α-synuclein [3]): negligible fibril formation | protein soluble after incubation, SDS PAGE of supernatant vs. total mixture (α-synuclein [4]): most protein still soluble
Compound: O=C1c2ccc(O)c(O)c2C(=O)c2c(O)ccc(O)c21 [quinalizarin]

lagtime for fibrillation (α-synuclein [3]): Significant increases in
Compound: NC(=O)c1ccc[n+]([C@@H]2O[C@H](COP(=O)([O-])OP(=O)(O)OC[C@H]3O[C@@H](n4cnc5c(N)ncnc54)[C@H](OP(=O)(O)O)[C@@H]3O)[C@@H](O)[C@H]2O)c1 [sodium beta-nicotinamide adenine dinucleotide phosphate]

fibril formation by EM (α-synuclein [2]): negligible fibril formation | Thioflavin T signal / fibril formation by Thioflavin T fluorescence (α-synuclein [3]): negligible fibril formation | protein soluble after incubation, SDS PAGE of supernatant vs. total mixture (α-synuclein [4]): most protein still soluble
Compound: chlorophyllide Cu complex Na salt

fibril formation by EM (α-synuclein [2]): negligible fibril formation | Thioflavin T signal / fibril formation by Thioflavin T fluorescence (α-synuclein [3]): negligible fibril formation | protein soluble after incubation, SDS PAGE of supernatant vs. total mixture (α-synuclein [4]): most protein still soluble
Compound: pyrogallin
